# Earlier results in US6375990B1, “Method and devices for transdermal delivery of lithium” (Emory University, priority 1997, dated 2002).
# What was measured:
# [1] = not given; remark: listed apart in the source
# [2] = patients who do not respond to antidepressant monotherapy
smiles,measurement,setting,value
"[Li+] [Li^+, Lithium]",final volume of distribution (Vd),approximates total body water,0.7 to 0.9 L/kg
same,time to maximal plasma Li+ concentration (Tmax),"immediate release formulations, following an oral dose",1 to 4 h
same,binding to blood proteins,in vivo,does not bind to blood proteins
same,biotransformation / metabolic conversion,in vivo,not biotransformed
same,"elimination through sweat, saliva, and feces",in vivo,less than 5 % of an oral dose
same,excretion through the kidneys,in vivo,> 90%
same,filtered load reabsorbed in the renal proximal tubules,in vivo,Eighty
same,half-life,in vivo,18 to 36 h
same,absorption from the gastrointestinal tract,oral administration,readily and nearly completely absorbed
same,plasma concentration associated with life-threatening intoxication,[1]; plasma,exceeding 3.5 mEq/L
same,serum concentration above which adverse effects increase greatly,[1]; serum,exceed 1.5 mEq/L
same,antidepressant non-responders converted to responders,[2],approximately 50 % of patients
